The values that follow come from patent EP0326331B1, “Substituted quinolines and cinnolines” (Dow AgroSciences LLC, priority 1988, dated 1989).

Assay [1] concerns southern armyworm (Spodopetra eridania Cramer). As to the kind of experiment: Mite/insect screen, SAW. The format is in vivo. The following applies: Spodoptera eridania, percent mortality, read-out: SAW RESULTS %; for mortality at 400 ppm: rate 400 ppm. The procedure, abridged: (§1)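 Read-out: percent mortality after standard exposure periods. Test solutions were water dilutions of compound dissolved in acetone/alcohol (50:50) with emulsifier blends; leaves were sprayed to runoff on both surfaces and air-dried for one hour before exposure.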

The next assay deals with Phytophthora infestans. The format is in vivo. Particulars: field test.
A further assay has as its system corn rootworm. Kind of assay: Mite/insect screen, CRW. Format: in vivo. Particulars: percent mortality, read-out: CRW RESULTS %; for mortality at 24 ppm: CRW rate 24.00 ppm. The essentials:
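Read-out: % mortality after standard exposure. Formulation: acetone/alcohol (50:50) with emulsifiers at 23 g and 13 g per liter, water-diluted to final test levels.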

Assay [2] relates to melon aphids (Aphis gossypii Glover). Kind of assay: Mite/insect screen, MA. The format is in vivo. Particulars: Aphis gossypii, percent mortality, read-out: MA RESULTS %; for mortality at 400 ppm: rate 400 ppm. The essentials:
as §1

The test system of assay [3] is Twospotted spider mites (Tetranychus urticae Koch). Kind of assay: Mite/insect screen, SM. Format: in vivo. The following applies: Tetranychus urticae, percent mortality, read-out: SM RESULTS %; for mortality at 400 ppm: rate 400 ppm. The procedure, abridged: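 Foliar spray to runoff (10 psi), 1 h drying; aqueous dilutions from acetone/alcohol emulsifier stock. Mortality (%) after standard exposure.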

Assay [4] concerns Pseudoperonospora cubensis (downy mildew). As to the kind of experiment: Test 1 greenhouse foliar spray screen, downy mildew on squash. The format is in vivo. Particulars: for DOWN MDEW: disease control rating, foliar spray on squash, 400 ppm (+++ at 100 ppm); for activity against downy mildew: summary statement in the description; for pest or weed control at 400 ppm: Pseudoperonospora cubensis, foliar, Test 1, foliar spray on squash, disease control rating at 400 ppm / 100 ppm, read-out: DOWN MDEW.

For assay [5], the system named is Erysiphe graminis tritici (powdery mildew). Kind of assay: Test 1 greenhouse foliar spray screen, powdery mildew on wheat. The format is in vivo. The following applies: for POWD MDEW: disease control rating, foliar spray on wheat, 400 ppm (+++ at 100 ppm); for pest or weed control at 400 ppm: Blumeria graminis, foliar, Test 1, foliar spray on wheat, disease control rating at 400 ppm / 100 ppm, read-out: POWD MDEW.

A further assay concerns Pyrenophora teres. As to the kind of experiment: Field tests against plant pathogens. Format: in vivo. Particulars: field test, crop barley. The text has this:
(§2) Selected compounds were field tested against a variety of plant pathogens. […]

Assay [6] concerns Septoria tritici (leaf blotch). Kind of assay: Test 1 greenhouse foliar spray screen, leaf blotch on wheat. Particulars: for LEAF BLOT: disease control rating, foliar spray on wheat, 400 ppm (+++ at 100 ppm); for pest or weed control at 400 ppm: Zymoseptoria tritici, Test 1, foliar spray on wheat, disease control rating at 400 ppm / 100 ppm, read-out: LEAF BLOT. The format is in vivo.

The test system of assay [7] is Pyricularia oryzae (rice blast). Kind of assay: whole plant or invertebrate. The format is in vivo. Particulars: for RICE BLAST: disease control rating, foliar spray on rice, 400 ppm (+++ at 100 ppm); for pest or weed control at 400 ppm: Pyricularia oryzae, foliar, read-out: RICE BLAST, Test 1, foliar spray on rice, disease control rating at 400 ppm / 100 ppm.
Assay [8] concerns Venturia inaequalis (apple scab). Kind of assay: Test 1 greenhouse foliar spray screen, apple scab on apple seedling. Format: in vivo. The following applies: for APPL SCAB: disease control rating, foliar spray on apple seedling, 400 ppm (+++ at 100 ppm); for pest or weed control at 400 ppm: Venturia inaequalis, Test 1, foliar spray on apple seedling, disease control rating at 400 ppm / 100 ppm, read-out: APPL SCAB.

The test system of assay [9] is Botrytis cinerea (gray mold). As to the kind of experiment: Test 1 greenhouse foliar spray screen, gray mold on grape berries. The format is in vivo. The following applies: for GRAY MOLD: disease control rating, spray on grape berries, 400 ppm (+++ at 100 ppm); for pest or weed control at 400 ppm: Botrytis cinerea, foliar, Test 1, spray on grape berries, disease control rating at 400 ppm / 100 ppm.

The test system of assay [10] is Puccinia recondita tritici (leaf rust). Kind of assay: Test 1 greenhouse foliar spray screen, leaf rust on wheat. The format is in vivo. Particulars: for LEAF RUST: disease control rating, foliar spray on wheat, 400 ppm (+++ at 100 ppm); for pest or weed control at 400 ppm: Puccinia recondita, foliar, Test 1, foliar spray on wheat, disease control rating at 400 ppm / 100 ppm.

Another assay has as its system Plasmopara viticola. Kind of assay: Field tests against plant pathogens. The format is in vivo. Particulars: field test, crop grape.
Description: as §2

In assay [11] the test system is Cercospora beticola (leaf spot). As to the kind of experiment: Test 1 greenhouse foliar spray screen, leaf spot on sugar beet. Format: in vivo. The following applies: for LEAF SPOT: disease control rating, foliar spray on sugar beet, 400 ppm (+++ at 100 ppm); for pest or weed control at 400 ppm: Cercospora beticola, Test 1, foliar spray on sugar beet, disease control rating at 400 ppm / 100 ppm.

Another assay concerns plant pathogens. Kind of assay: Fungicidal efficacy against a broad spectrum of plant pathogens (summary of screen). Format: in vivo. Particulars: summary statement in the description.
Another assay concerns CUCURBIT POWDERY MILDEW. As to the kind of experiment: Greenhouse combination test with known fungicide, foliar spray. Particulars: 1-9 rating scale, time 4 hours.
For the next assay, the system named is CUCURBIT DOWNY MILDEW. The assay is described as above. The following applies: 1-9 rating scale, time 4 hours.
The mark [12] stands for this setting: foliar, rate 200 ppm, foliar spray on squash.

Read-outs that look alike come from different tables or passages of the source.

Description for CUCURBIT DOWNY MILDEW: (§3) The test compounds were formulated for application by dissolving 50 mg of the compound into 1.25 ml of solvent. The solvent was prepared by mixing 50 ml of "Tween 20" with 475 ml of acetone and 475 ml of ethanol. The solvent/compound solution was diluted to 125 ml with deionized water. The resulting formulation contains 400 ppm test chemical. Lower concentrations were obtained by serial dilution with the solvent-surfactant mixture.
(§4) The formulated technical compounds were sprayed on all foliar surfaces of the host plants (or cut berry) to past run-off. Single pots of each host plant were placed on raised, revolving pedestals in a fume hood. Test solutions were sprayed on all foliar surfaces. All treatments were allowed to dry and the plants were inoculated with the appropriate pathogens within 2-4 hours.
(§5) In the tables, the time given under "Time in hours" is the number of hours elapsing between treatment and inoculation. […] In such cases, curative activity was being tested. […] In such cases, residual or protectant activity was tested. […] The results were evaluated on a 1-9 rating scale. These ratings represent the following percent disease control: 1 = 0-19%, 2 = 20-29%, 3 = 30-39%, 4 = 40-59%, 5 = 60-74%, 6 = 75-89%, 7 = 90-96%, 8 = 97-99%, and 9 = 100%.
Description for CUCURBIT POWDERY MILDEW: as §3, §4, §5

Turning to `c1ccc(CCNc2ccnc3ccccc23)cc1` [Example 2, N-(2-phenylethyl)-4-quinolinamine], the mortality at 200 ppm in assay [1] (SAW, SM & MA RATE 200 PPM) was determined as 0%; in [2] (SAW, SM & MA RATE 200 PPM), 0%; in assay [3] (SAW, SM & MA RATE 200 PPM) it was 0%. The “pathogens against which compounds of the invention showed activity” value (from here on “pathogens against which compounds”) is on record as “Phytophthora infestans” in the assay on Phytophthora infestans (crop potato), “Phytophthora infestans” in the assay with Phytophthora infestans (crop tomato) and “Pyrenophora teres” in the assay with Pyrenophora teres. The mortality at 12 ppm in the assay on corn rootworm (CRW RATE 12.00 PPM) is 0%. Also, the “DOWN MDEW” value in [4] is reported as “+++ (90-100% control at 100 ppm)”. For the same compound, the “POWD MDEW” value in assay [5] is “- (0-19% control at 400 ppm)”. In addition, the “LEAF BLOT” value in assay [6] was “- (0-19% control at 400 ppm)”. Further, the “RICE BLAST” value in [7] is reported as “- (0-19% control at 400 ppm)”. Moreover, the “APPL SCAB” value in [8] was “- (0-19% control at 400 ppm)”. In addition, the “GRAY MOLD” value in [9] is “- (0-19% control at 400 ppm)”. The “LEAF RUST” value in [10] was “- (0-19% control at 400 ppm)”.
For the compound `Fc1cccc2c(NCCc3ccccc3C(F)(F)F)ccnc12` [Example 97, 8-fluoro-N-[2-[2-(trifluoromethyl)phenyl]ethyl]-4-quinolinamine], the mortality at 200 ppm in [1] (SAW, SM & MA RATE 200 PPM) was determined as 0%; in [2] (SAW, SM & MA RATE 200 PPM) it was 0%; in assay [3] (SAW, SM & MA RATE 200 PPM), 0%. The mortality at 12 ppm in the assay with corn rootworm (CRW RATE 12.00 PPM) was 0%. The “DOWN MDEW” value in assay [4] was “+++ (90-100% control at 100 ppm)”. In assay [4], the “activity against downy mildew” value was “particularly excellent activity”. Moreover, the “POWD MDEW” value in assay [5] is on record as “+ (20-89% control at 400 ppm)”. The “pathogens against which compounds” value in the assay with Plasmopara viticola is “Plasmopara viticola”. Moreover, in assay [6], the “LEAF BLOT” value is “+++ (90-100% control at 100 ppm)”. For the same compound, the “RICE BLAST” value in assay [7] is “+++ (90-100% control at 100 ppm)”. Moreover, the “APPL SCAB” value in [8] is given as “- (0-19% control at 400 ppm)”. Besides, the “GRAY MOLD” value in assay [9] is “- (0-19% control at 400 ppm)”. Besides, in assay [10], the “LEAF RUST” value is given as “+++ (90-100% control at 100 ppm)”. In [11], the “LEAF SPOT” value is given as “+++ (90-100% control at 100 ppm)”.
Consider `Fc1cccc2c(NCCc3cccs3)ccnc12` [Example 173, 8-fluoro-N-[2-(2-thienyl)ethyl]-4-quinolinamine], for which the mortality at 200 ppm in assay [1] (setting [12]), in [2] (setting [12]) and in assay [3] (setting [12]) was 0% each time. For the same compound, in the assay on corn rootworm (CRW rate 12.00 ppm), the mortality at 12 ppm is 0%. Also, the “DOWN MDEW” value in assay [4] is “+++ (90-100% control at 100 ppm)”. Moreover, the “activity against downy mildew” value in [4] is “particularly excellent activity”. Besides, the “POWD MDEW” value in [5] is “+ (20-89% control at 400 ppm)”. Besides, the “pathogens against which compounds” value with Plasmopara viticola is given as “Plasmopara viticola”. The “LEAF BLOT” value in assay [6] is “+ (20-89% control at 400 ppm)”. For the same compound, in [7], the “RICE BLAST” value is recorded as “+ (20-89% control at 400 ppm)”. For the same compound, in assay [8], the “APPL SCAB” value is on record as “- (0-19% control at 400 ppm)”. Further, the “GRAY MOLD” value in assay [9] is given as “- (0-19% control at 400 ppm)”. Moreover, the “LEAF RUST” value in [10] is given as “++ (90-100% control at 400 ppm)”. Also, the “LEAF SPOT” value in assay [11] was “+++ (90-100% control at 100 ppm)”.
On to `COc1ccccc1CCOc1ccnc2c(F)cccc12` [Example 228, 8-fluoro-4-[2-(2-methoxyphenyl)ethoxy]quinoline], for which the mortality at 200 ppm in [1] (setting [12]), in [2] (setting [12]) and in [3] (setting [12]) was 0% each time. For the same compound, the mortality at 400 ppm was 0% in assay [1] (foliar, foliar spray on squash); 80% in assay [2] (foliar, foliar spray on squash); 0% in assay [3] (foliar, foliar spray on squash). In addition, the mortality at 12 ppm with corn rootworm (CRW rate 12.00 ppm) amounted to 0%. In addition, the mortality at 24 ppm in the assay with corn rootworm was determined as 0%. Further, the pest or weed control at 400 ppm in assay [4] was in the range of 90 to 100%; in assay [5], 90 to 100%; in assay [6], 90 to 100%; in assay [7], 90 to 100%; in [8] it was 90 to 100%; in [9] it was 0 to 19%. Moreover, the pest or weed control at 400 ppm was 90 to 100% in [10] and 20 to 89% in assay [11]. The “activity against a broad spectrum of plant pathogens” value in the assay on plant pathogens was “particularly excellent activity”.
With `CC(C)(C)c1ccc(CCCc2ccnc3c(F)cccc23)cc1` [Example 260, 4-[3-[4-(t-butyl)phenyl]propyl]-8-fluoroquinoline], the mortality at 200 ppm in assay [1] (setting [12]), in assay [2] (setting [12]) and in [3] (setting [12]) was 100% throughout. Also, the mortality at 400 ppm was 40% in assay [1] (foliar, foliar spray on squash); 0% in assay [2] (foliar, foliar spray on squash); 0% in assay [3] (foliar, foliar spray on squash). In the assay on corn rootworm (CRW rate 12.00 ppm), the mortality at 12 ppm was found to be 0%. Besides, the mortality at 24 ppm in the assay on corn rootworm amounted to 40%. Besides, the pest or weed control at 400 ppm in assay [4] lay in the range of 90 to 100%; in assay [5], 90 to 100%; in assay [6] it was 90 to 100%; in [7] it was 90 to 100%; in assay [8], 0 to 19%; in [9], 0 to 19%. Also, the pest or weed control at 400 ppm in assay [10] lay in the range of 90 to 100%; in [11], 20 to 89%. Also, in assay [7] (summary statement in the description), the “activity against rice blast” value was “particularly excellent activity”. Further, the “activity against a broad spectrum of plant pathogens” value in the assay on plant pathogens is recorded as “particularly excellent activity”.
On to `OC(c1ccc(F)cc1)(c1cncnc1)c1ccccc1Cl` (stereo not shown) [nuarimol, reference compound], for which the RESULTS in the assay on CUCURBIT POWDERY MILDEW (nuarimol alone 0.25 ppm) was 6.0; with CUCURBIT POWDERY MILDEW (nuarimol alone 0.50 ppm), 7.0; with CUCURBIT POWDERY MILDEW (nuarimol alone 1.00 ppm) it was 8.0; with CUCURBIT POWDERY MILDEW (nuarimol alone 2.00 ppm), 9.0; in the assay with CUCURBIT DOWNY MILDEW (nuarimol alone 0.25 ppm) it was 1.0; in the assay with CUCURBIT DOWNY MILDEW (nuarimol alone 0.50 ppm), 1.0. The RESULTS in the assay on CUCURBIT DOWNY MILDEW (nuarimol alone 1.00 ppm) and in the assay on CUCURBIT DOWNY MILDEW (nuarimol alone 2.00 ppm) was 1.0 throughout.
